Consider 13 compounds from article PMC10728849, “Solubility of Some Drugs in Aqueous Solutions of Choline Chloride-Based Deep Eutectic Solvent Systems: Experimental Data, Modeling, and the Impact of Solution pH” (Iranian Journal of Pharmaceutical Research : IJPR, 2023).

Data set [1] is described as follows: Solubility measurement by shake flask method (UV spectrophotometry). Conditions: for SChCl-G50%/ SChCl-G10% / SChCl-U50%/ SChCl-U10%: solubility ratio in DES50% to DES10%; for SChCl-G50%/ SChCl-G10%: ChCl-G; for SChCl-U50%/ SChCl-U10%: ChCl-U; for solubility at 48 h: 37 °C, thermodynamic from solid, 37 ± 1°C. The method, then:
A DES composed of ChCl + G/U was selected for this study. It was prepared based on a previously reported method in the literature ([13], [14]). First, the components of DESs, including ChCl as a hydrogen bond acceptor (HBA) and G/U as a hydrogen bond donor (HBD), were weighed using an analytical balance (ATX224, Shimadzu, Japan) with 1×10^-4 g precision at a specific mole fraction of 1:2, respectively. The measured amounts of these compositions were added into a beaker and sealed firmly with Parafilm. Then, it was heated at 70°C while stirring at 550 rpm for 60 minutes until a clear and uniform liquid was formed. At the end of the synthesis process of DES, the prepared liquids were cooled and used as a new class of cosolvents for drug solubilization.
Many different techniques of solubility measurements have been reported in the literature. The shake flask is a popular and convenient method for solubility determination ([21]), which was applied in this study. First, solvent mixtures were made by weighing 10:90% and 50:50% mass fractions of DES: water, respectively. Excess amounts of poorly soluble drugs were added into glass vials containing 4 g prepared solvent mixtures. All of the vials were shaken on a shaker (Heidolph, Schwabach, Germany) and placed in an incubator (Kimia Idea Pardaz Azarbaijan (KIPA) co., Tabriz, Iran) at 37 ± 1°C and 180 rpm for 48 hours. […] The saturated solutions were centrifuged at 6000 rpm for 15 minutes (Tomy Micro One, Tokyo, Japan) and filtered in some cases (Filter Bioscience Membrane Technology Co., 0.22 µm). […] Finally, the absorbance of each solution was converted to concentration using the calibration curves, taking into account the dilution factor. The solubility of each drug was then calculated. Solubilities were determined three times in all cases, and the mean ± standard deviation of data was reported.

Details of data set [2]: method as in doi:10.1016/j.molliq.2018.07.065. The following applies: cited from earlier work.
For data set [3] the following is noted: cited from earlier work.
Data set [4] can be described thus: pH of saturated solutions (final pH of dissolution medium). Type of data set: physicochemical. An excerpt:
Acidic and basic compounds can change the pH of the dissolution medium in water.

[5] abbreviates: aqueous with cosolvent or surfactant or cyclodextrin, Water+ ChCl-G50%, 50:50% mass fraction choline chloride-glycerol (1:2) DES:water.
[6] abbreviates: pH 7.5, aqueous with cosolvent or surfactant or cyclodextrin, Water + ChCl-U10%, 10:90% mass fraction choline chloride-urea (1:2) DES:water.
Where [7] appears, read: pH 8.3, aqueous with cosolvent or surfactant or cyclodextrin, Water+ ChCl-U50%, 50:50% mass fraction choline chloride-urea (1:2) DES:water.
Setting [8] is: aqueous with cosolvent or surfactant or cyclodextrin, Water + ChCl-G10%, 10:90% mass fraction choline chloride-glycerol (1:2) DES:water.

Values after ≈ are worked out from the molar mass of the structure shown. Marks after values point to notes of the source that are not given here.

On to `CC(C)NCC(O)COc1ccc(CC(N)=O)cc1` (stereo not drawn) [Atenolol, atenolol], for which, in data set [1], the “SChCl-G50%/ SChCl-G10%” value is reported as 1.03 and the “SChCl-U50%/ SChCl-U10%” value is 1.05.

As for `O=C(O)c1ccccc1` [Benzoic acid, benzoic acid], in data set [1], the “SChCl-G50%/ SChCl-G10%” value is recorded as 1.76 and the “SChCl-U50%/ SChCl-U10%” value worked out at 3.16.

Broadly, the solubility is the dissolved amount per volume that the medium holds. Take `NC(=O)N1c2ccccc2C=Cc2ccccc21` [Carbamazepine, carbamazepine]: the figures for the solubility at 48 h in data set [1] (setting [5]), in data set [1] (setting [6]) and in data set [1] (setting [7]) were 2730 ± 230 µg/mL (≈ 11600 µM), 463 ± 10 µg/mL and 3930 ± 344 µg/mL (≈ 16600 µM), respectively. Further, the “SChCl-G50%/ SChCl-G10%” value in data set [1] is reported as 8.54. Moreover, the “SChCl-U50%/ SChCl-U10%” value in data set [1] was 8.48. The “Solubility, Water” value in data set [2] is recorded as 0.296 ± 0.0139 ^a g/L.

For the compound `COc1ccccc1OCCNCC(O)COc1cccc2[nH]c3ccccc3c12` (stereo not drawn) [Carvedilol, carvedilol], the solubility at 48 h in data set [1] (setting [8]) amounted to 159 ± 12 µg/mL; in data set [1] (setting [5]) it was 873 ± 27 µg/mL (≈ 2150 µM); in data set [1] (setting [6]) it was 91 ± 7 µg/mL; in data set [1] (setting [7]), 620 ± 20 µg/mL (≈ 1530 µM). Besides, the “SChCl-G50%/ SChCl-G10%” value in data set [1] is recorded as 5.48. In addition, in data set [1], the “SChCl-U50%/ SChCl-U10%” value is 6.79. In data set [2], the “Solubility, Water” value is given as 0.032 ± 0.0030 ^a g/L.

By pKa is commonly meant the pH at which an ionisable group is half protonated. For the compound `O=C(O)CO` [Glycolic acid], the pKa in data set [3] was 3.6.

As to `CC(C)Cc1ccc(C(C)C(=O)O)cc1` (stereo not drawn) [Ibuprofen], the solubility at 48 h in data set [1] (setting [8]) was found to be 141 ± 8 µg/mL; in data set [1] (setting [5]), 242 ± 4 µg/mL (≈ 1170 µM); in data set [1] (setting [6]), 1300 ± 263 µg/mL; in data set [1] (setting [7]), 3890 ± 622 µg/mL (≈ 18900 µM). For the same compound, the results for the “pH of saturated solution” value in data set [4] (in ChCl-U10%), in data set [4] (in ChCl-U50%) and in data set [4] (in water) were 4.5, 4.9 and 6.4, respectively. Moreover, in data set [2], the “Solubility, Water” value was 0.104 ± 0.0035 ^a g/L.

On to `CC(=O)N1CCN(c2ccc(OCC3COC(Cn4ccnc4)(c4ccc(Cl)cc4Cl)O3)cc2)CC1` (stereo not drawn) [Ketoconazole, ketoconazole], for which the solubility at 48 h in data set [1] (setting [8]) was determined as 35 ± 1 µg/mL; in data set [1] (setting [5]), 77 ± 7 µg/mL (≈ 145 µM); in data set [1] (setting [6]), 28 ± 1 µg/mL; in data set [1] (setting [7]), 62 ± 6 µg/mL (≈ 117 µM). Moreover, in data set [1], the “SChCl-G50%/ SChCl-G10%” value was found to be 2.16. The “SChCl-U50%/ SChCl-U10%” value in data set [1] was 2.24. For the same compound, the “Solubility, Water” value in data set [2] is listed as 0.008 ± 0.0008 ^a g/L.

`Nc1nnc(-c2cccc(Cl)c2Cl)c(N)n1` [Lamotrigine, lamotrigine]: the solubility at 48 h worked out at 506 ± 17 µg/mL in data set [1] (setting [8]), 2285 ± 18 µg/mL (≈ 8920 µM) in data set [1] (setting [5]), 482 ± 15 µg/mL in data set [1] (setting [6]) and 2126 ± 16 µg/mL (≈ 8300 µM) in data set [1] (setting [7]). Moreover, in data set [1], the “SChCl-G50%/ SChCl-G10%” value is given as 4.52. Besides, the “SChCl-U50%/ SChCl-U10%” value in data set [1] turned out to be 4.41. Further, the “Solubility, Water” value in data set [2] is reported as 0.342 ± 0.0161 ^a g/L.

Consider `c1ccc2c(c1)Nc1ccccc1S2` [Phenothiazine, phenothiazine], for which the solubility at 48 h in data set [1] (setting [8]) came out at 5 µg/mL; in data set [1] (setting [5]), 99 ± 10 µg/mL (≈ 497 µM); in data set [1] (setting [6]) it was 23 ± 0.3 µg/mL; in data set [1] (setting [7]) it was 135 ± 15 µg/mL (≈ 677 µM). The “SChCl-G50%/ SChCl-G10%” value in data set [1] was 18.06. Also, in data set [1], the “SChCl-U50%/ SChCl-U10%” value was 5.83. Besides, the “Solubility, Water” value in data set [2] is on record as 0.003 ± 0.0004 ^a g/L.

As to `O=C1NC(=O)C(c2ccccc2)(c2ccccc2)N1` [Phenytoin, phenytoin], the solubility at 48 h in data set [1] (setting [8]) was determined as 60 ± 5 µg/mL; in data set [1] (setting [5]) it was 255 ± 20 µg/mL (≈ 1010 µM); in data set [1] (setting [6]) it was 104 ± 8 µg/mL; in data set [1] (setting [7]), 753 ± 60 µg/mL (≈ 2980 µM). The “SChCl-G50%/ SChCl-G10%” value in data set [1] was found to be 4.24. The “SChCl-U50%/ SChCl-U10%” value in data set [1] was determined as 7.25. In data set [2], the “Solubility, Water” value is 0.056 ± 0.0053 ^a g/L.

Turning to `CN1C(C(=O)Nc2ccccn2)=C(O)c2ccccc2S1(=O)=O` [Piroxicam, piroxicam], the solubility at 48 h was 32 ± 2 µg/mL in data set [1] (setting [8]), 40 ± 1 µg/mL (≈ 121 µM) in data set [1] (setting [5]), 571 ± 35 µg/mL in data set [1] (setting [6]) and 2070 ± 36 µg/mL (≈ 6250 µM) in data set [1] (setting [7]). In addition, the “SChCl-G50%/ SChCl-G10%” value in data set [1] is reported as 1.28. The “SChCl-U50%/ SChCl-U10%” value in data set [1] was found to be 3.63. Further, the “pH of saturated solution” value in data set [4] (in ChCl-U10%) worked out at 6.1; in data set [4] (in ChCl-U50%) it was 6.2; in data set [4] (in water), 5.6. Besides, in data set [2], the “Solubility, Water” value is reported as 0.032 ± 0.0014 ^a g/L.

For the compound `O=C(O)c1ccccc1O` [Salicylic acid, salicylic acid], the solubility at 48 h in data set [1] (setting [8]) was 7060 ± 422 µg/mL; in data set [1] (setting [5]) it was 12700 ± 265 µg/mL (≈ 92200 µM); in data set [1] (setting [6]), 9840 ± 555 µg/mL; in data set [1] (setting [7]), 32400 ± 671 µg/mL (≈ 234000 µM). In addition, in data set [1], the “SChCl-G50%/ SChCl-G10%” value is given as 1.80. Besides, in data set [1], the “SChCl-U50%/ SChCl-U10%” value is on record as 3.29. Besides, the “Solubility, Water” value in data set [2] is 2.755 ± 0.3031 ^a g/L.

As for `CN1CC(=O)N2[C@H](c3ccc4c(c3)OCO4)c3[nH]c4ccccc4c3C[C@@H]2C1=O` [Tadalafil, tadalafil], the solubility at 48 h in data set [1] (setting [8]) is 17 ± 2 µg/mL; in data set [1] (setting [5]), 91 ± 6 µg/mL (≈ 234 µM); in data set [1] (setting [6]), 18 ± 2 µg/mL; in data set [1] (setting [7]) it was 151 ± 10 µg/mL (≈ 388 µM). In data set [1], the “SChCl-G50%/ SChCl-G10%” value turned out to be 5.25. In addition, the “SChCl-U50%/ SChCl-U10%” value in data set [1] was found to be 8.42. Besides, the “Solubility, Water” value in data set [2] is on record as 0.016 ± 0.0019 ^a g/L.
